We go through 24 compounds from patent US20170253601A1, “Substituted Pyrrolidine Compounds” (EPIZYME, INC., priority 2014, published 2017).

A value given as a limit tells only on which side of the number the result lay.

T1 sequence (Q9NRG4 whole entry): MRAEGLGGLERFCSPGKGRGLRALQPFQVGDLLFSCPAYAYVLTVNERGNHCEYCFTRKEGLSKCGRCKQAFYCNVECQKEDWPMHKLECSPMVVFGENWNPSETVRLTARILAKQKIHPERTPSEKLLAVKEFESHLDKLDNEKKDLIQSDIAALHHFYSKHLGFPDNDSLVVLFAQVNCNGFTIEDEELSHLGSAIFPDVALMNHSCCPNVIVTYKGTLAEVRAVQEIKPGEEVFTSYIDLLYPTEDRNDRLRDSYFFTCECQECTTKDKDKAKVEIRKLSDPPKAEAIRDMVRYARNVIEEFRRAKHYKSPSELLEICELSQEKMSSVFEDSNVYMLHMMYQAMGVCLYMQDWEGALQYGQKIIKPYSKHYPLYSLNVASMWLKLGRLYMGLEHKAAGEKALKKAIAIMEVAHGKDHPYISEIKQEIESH

One test has as its target T1, SMYD2 (Homo sapiens, UniProt Q9NRG4).
T1 construct: Full length SMYD2 (NP 064582.2) was cloned; His6 (N, cleaved yes); FLAG (N); made in house; host or cells: Sf9 insect cells
Put plainly: SMYD2 Biochemical Assay (3H-SAM, biotinylated peptide substrate, Flashplate). Conditions: IC50 values are an average of n = 1 to n = 50; read-out: SMYD2 Biochem IC50 (μM)*. From the text: S-adenosylmethionine (SAM), S-adenosylhomocysteine (SAH), bicine, Tween20, dimethylsulfoxide (DMSO), bovine skin gelatin (BSG), and Tris(2-carboxyethyl)phosphine hydrochloride (TCEP) were purchased from Sigma-Aldrich at the highest level of purity possible. ^3H-SAM was purchase from American Radiolabeled Chemicals with a specific activity of 80 Ci/mmol. 384-well streptavidin Flashplates were purchased from PerkinElmer.
Peptide was synthesized with a N-terminal linker-affinity tag motif and a C-terminal amide cap by 21st Century Biochemicals. The peptide was high-performance liquid chromatography (HPLC) purified to greater than 95% purity and confirmed by liquid chromatography mass spectrometry (LC-MS). The sequence was […](K-Biot)-amide. (SEQ ID No: 3)
Full length SMYD2 (NP 064582.2) was cloned into a pFastbac-Htb-lic vector with an N-terminal His6 tag and FLAG tag, preceded by a TEV protease cleavage site. The protein was expressed in Sf9 insect cells. Cells were resuspended in lysis buffer (25 mM HEPES-NaOH, pH 7.5, 200 mM NaCl, 5% glycerol, and 5 mM β-ME) and lysed by sonication. The protein was purified by Ni-NTA (Qiagen), followed by TEV cleavage to remove the His6 tag, subtractive Ni-NTA (Qiagen), and gel filtration chromatography using an […] (GE Healthcare). Purified protein was stored in 20 mM Tris-HCl, pH 8.0, 100 mM NaCl, and 1 mM TCEP.
The assays were all performed in a buffer consisting of 20 mM Bicine (pH=7.6), 1 mM TCEP, 0.005% Bovine Skin Gelatin, and 0.002% Tween20, prepared on the day of use. Compounds in 100% DMSO (1 ul) were spotted into a polypropylene 384-well V-bottom plates (Greiner) using a Platemate Plus outfitted with a 384-channel head (Thermo Scientific). DMSO (1 ul) was added to Columns 11, 12, 23, 24, rows A-H for the maximum signal control and 1 ul of SAH, a known product and inhibitor of SMYD2, was added to columns 11, 12, 23, 24, rows I-P for the minimum signal control. A cocktail (40 ul) containing the SMYD2 enzyme was added by Multidrop Combi (Thermo-Fisher). The compounds were allowed to incubate with SMYD2 for 30 min at room temperature, then a cocktail (10 ul) containing ^3H-SAM and peptide was added to initiate the reaction (final volume=51 ul). The final concentrations of the components were as follows: SMYD2 was 1.5 nM, ^3H-SAM was 10 nM, and peptide was 60 nM, SAH in the minimum signal control wells was 1000 uM, and the DMSO concentration was 2%. The assays were stopped by the addition of non-radioactive SAM (10 ul) to a final concentration of 600 uM, which dilutes the ^3H-SAM to a level where its incorporation into the peptide substrate is no longer detectable. 50 ul of the reaction in the 384-well polypropylene plate was then transferred to a 384-well Flashplate and the biotinylated peptides were allowed to bind to the streptavidin surface for at least 1 hour before being washed three times with 0.1% Tween20 in a Biotek ELx405 plate washer. The plates were then read in a PerkinElmer TopCount plate reader to measure the quantity of ^3H-labeled peptide bound to the Flashplate surface, measured as disintegrations per minute (dpm) or alternatively, referred to as counts per minute (cpm).
Where dpm=disintegrations per minute, cmpd=signal in assay well, and min and max are the respective minimum and maximum signal controls.
Where top and bottom are the normally allowed to float, but may be fixed at 100 or 0 respectively in a 3-parameter fit. The Hill Coefficient normally allowed to float but may also be fixed at 1 in a 3-parameter fit. I is the compound concentration.
SMYD2 biochemical assay data for representative Compounds of the Disclosure are presented in Tables 1-3 in the column titled “SMYD2 Biochem IC50 (μM).”
`CC(C)c1cc(C(=O)N[C@@H]2CN(C(C)C)C[C@@H]2C)no1` (racemic) [compound 193, (±)-cis-N-[4-methyl-1-(propan-2-yl)pyrrolidin-3-yl]-5-(propan-2-yl)-1,2-oxazole-3-carboxamide]: the IC50 (in general, the concentration that gives 50% inhibition) worked out at 7.85 µM. In the case of `C[C@H]1CN(Cc2ccc(S(C)(=O)=O)cc2)C[C@H]1NC(=O)c1cc(C2CC2)on1` (racemic) [compound 290, (±)-cis-5-cyclopropyl-N-{1-[(4-methane-sulfonylphenyl)methyl]-4-methylpyrrolidin-3-yl}-1,2-oxazole-3-carboxamide], the IC50 amounted to 10.5 µM. On the same count and under the same terms, under `C[C@@H]1CN(CC(=O)N2CCOCC2)C[C@H]1NC(=O)c1cc(C2CC2)on1` (racemic) [compound 271, (±)-trans-5-cyclopropyl-N-[4-methyl-1-[2-(morpholin-4-yl)-2-oxoethyl]pyrrolidin-3-yl]-1,2-oxazole-3-carboxamide] stands over 50 µM; under `C[C@@H]1CN(Cc2ccccc2)C[C@H]1NC(=O)c1cc(C2CC2)on1` (racemic) [compound 117, (±)-trans-N-(1-benzyl-4-methylpyrrolidin-3-yl)-5-cyclopropyl-1,2-oxazole-3-carboxamide], over 50 µM; under `CC(=O)Nc1ccccc1N1C[C@H](C)[C@H](NC(=O)c2cc(C3CC3)on2)C1` (racemic) [compound 335, (±)-cis-5-cyclopropyl-N-[1-(2-acetamido-phenyl)-4-methylpyrrolidin-3-yl]-1,2-oxazole-3-carboxamide], over 50 µM. On to `C[C@@H]1CN(Cc2ccc(-c3cc(Cl)ccc3Cl)o2)C[C@H]1NC(=O)c1cc(C2CC2)on1` (racemic) [compound 171, (±)-trans-5-cyclopropyl-N-[1-{[5-(2,5-dichlorophenyl)furan-2-yl]methyl}-4-methylpyrrolidin-3-yl]-1,2-oxazole-3-carboxamide], for which the IC50 is over 50 µM. Same read-out and setting: under `C[C@H]1CN(c2ccccc2)C[C@H]1NC(=O)c1cc(C2CC2)on1` (racemic) [compound 272, (±)-cis-5-cyclopropyl-N-[4-methyl-1-phenylpyrrolidin-3-yl]-1,2-oxazole-3-carboxamide] stands over 50 µM. Turning to `COc1cccc(CN2C[C@H](C)[C@H](NC(=O)c3cc(C4CC4)on3)C2)c1OC` (racemic) [compound 233, (±)-cis-5-cyclopropyl-N-[1-[(2,3-dimethoxy-phenyl)methyl]-4-methylpyrrolidin-3-yl]-1,2-oxazole-3-carboxamide], the IC50 came to 2.27 µM. Still for that read-out and setting: the value for `CC(C)N1C[C@H](C)[C@H](NC(=O)c2cc(C#N)on2)C1` (racemic) [compound 341, (±)-cis-5-cyano-N-[4-methyl-1-(propan-2-yl)pyrrolidin-3-yl]-1,2-oxazole-3-carboxamide] was 22.8 µM. The same measure, in the same setting: the value for `CC(c1ccccc1)N1C[C@H](C)[C@H](NC(=O)c2cc(C3CC3)on2)C1` (mixture of isomers) [compound 317, (±)-cis-5-cyclopropyl-N-[4-methyl-1-(1-phenyl-ethyl)pyrrolidin-3-yl]-1,2-oxazole-3-carboxamide] was 1.14 µM; that for `COc1ccc(CN2C[C@H](C)[C@H](NC(=O)c3cc(C4CC4)on3)C2)cc1` (racemic) [compound 228, (±)-cis-5-cyclopropyl-N-[1-[(4-methoxy-phenyl)methyl]-4-methylpyrrolidin-3-yl]-1,2-oxazole-3-carboxamide] was 3.63 µM; that for `CO[C@H]1CN(C)C[C@@H]1NC(=O)c1cc(C2CC2)on1` (racemic) [compound 122, (±)-trans-5-cyclopropyl-N-(4-methoxy-1-methylpyrrolidin-3-yl)-1,2-oxazole-3-carboxamide] was over 50 µM.

As for `C[C@H]1CN(CC(=O)N2CCOCC2)C[C@H]1NC(=O)c1cc(C2CC2)on1` (racemic) [compound 270, (±)-cis-5-cyclopropyl-N-[4-methyl-1-[2-(morpholin-4-yl)-2-oxoethyl]pyrrolidin-3-yl]-1,2-oxazole-3-carboxamide], the IC50 is over 50 µM.

As to `C[C@H]1CN(Cc2ccc(N(C)C)cc2)C[C@H]1NC(=O)c1cc(C2CC2)on1` (racemic) [compound 230, (±)-cis-5-cyclopropyl-N-[1-{[4-(dimethyl-amino)phenyl]methyl}-4-methylpyrrolidin-3-yl]-1,2-oxazole-3-carboxamide], the IC50 is 4.08 µM. Same read-out and setting: the value for `C[C@@H]1CN(CC2CCN(C(=O)OC(C)(C)C)CC2)C[C@H]1NC(=O)c1cc(C2CC2)on1` (racemic) [compound 255, (±)-trans-tert-butyl 4-{[3-(5-cyclopropyl-1,2-oxazole-3-amido)-4-methylpyrrolidin-1-yl]methyl}piperidine-1-carboxylate] was over 50 µM; that for `CC(=O)Nc1cccc(N2C[C@H](C)[C@H](NC(=O)c3cc(C4CC4)on3)C2)c1` (racemic) [compound 325, (±)-cis-5-cyclopropyl-N-[1-(3-acetamidophenyl)-4-methylpyrrolidin-3-yl]-1,2-oxazole-3-carboxamide] was over 50 µM.

Still in this test, the particulars now being: Table 1; average of n = 1 to n = 50; read-out: SMYD2 Biochem IC50.
For the compound `C[C@H]1CN(C2CC2)C[C@H]1NC(=O)c1cc(C2CC2)no1` (racemic) [compound 51, (±)-cis-3-cyclopropyl-N-(1-cyclopropyl-4-methylpyrrolidin-3-yl)isoxazole-5-carboxamide], the IC50 is 7.9 µM. In the case of `C[C@@H]1CNC[C@H]1NC(=O)c1cc(C2CC2)on1` (racemic) [compound 43, (±)-trans-5-cyclopropyl-N-(4-methyl-pyrrolidin-3-yl)isoxazole-3-carboxamide], the IC50 was over 50 µM.

With `CC(C)N1C[C@H](NC(=O)c2cc(C3CC3)on2)[C@@H](C)C1` [compound 42, 5-cyclopropyl-N-((3R,4S)-1-isopropyl-4-methyl-pyrrolidin-3-yl)isoxazole-3-carboxamide], the IC50 was 1.9 µM.

Staying with this test, now noted: Table 2; average of n = 1 to n = 50; read-out: SMYD2 Biochem IC50.
Regarding `C[C@@H]1CN(C2CCN(C)CC2)C[C@@H]1NC(=O)c1cc(C2CC2)on1` (racemic) [compound 82, (±)-cis-5-cyclopropyl-N-(4-methyl-1-(1-methylpiperidin-4-yl)pyrrolidin-3-yl)isoxazole-3-carboxamide], the IC50 is over 50 µM. Still for that read-out and setting: under `C[C@@H]1CN(S(C)(=O)=O)C[C@H]1NC(=O)c1cc(C2CC2)on1` (racemic) [compound 90, (±)-trans-5-cyclopropyl-N-(4-methyl-1-(methylsulfonyl)pyrrolidin-3-yl)isoxazole-3-carboxamide] stands over 50 µM; under `C[C@H]1CN(C(=O)CN)C[C@@H]1NC(=O)c1cc(C2CC2)on1` (racemic) [compound 92, (±)-trans-5-cyclopropyl-N-(1-glycyl-4-methylpyrrolidin-3-yl)isoxazole-3-carboxamide], over 50 µM. Still for that read-out and setting: the value for `C[C@@H]1CN(Cc2cccnc2)C[C@H]1NC(=O)c1cc(C2CC2)on1` (racemic) [compound 84, (±)-trans-5-cyclopropyl-N-(4-methyl-1-(pyridin-3-ylmethyl)pyrrolidin-3-yl)isoxazole-3-carboxamide] was over 50 µM; that for `C[C@H]1CN(Cc2ccccn2)C[C@H]1NC(=O)c1cc(C2CC2)on1` (racemic) [compound 109, (±)-cis-5-cyclopropyl-N-(4-methyl-1-(pyridin-2-ylmethyl)pyrrolidin-3-yl)isoxazole-3-carboxamide] was 31.8 µM.
